The values below are quoted from earlier work in patent US7501409B2, “Preparations for oral administration” (Mitsubishi Tanabe Pharma Corporation, priority 2000, dated 2009).

For orientation: solubility means the concentration that dissolves in the medium under given conditions.

Structures can show the parent of a compound that is named as a salt. Where two headings read alike, the source gives them in different places.

As to `CCCc1nn(C)c2c(=O)[nH]c(-c3cc(S(=O)(=O)N4CCN(C)CC4)ccc3OCC)nc12` [sildenafil citrate], the solubility (pH 1.2) was 2520 µg/mL and the solubility (pH 6.8) is 110 µg/mL.
